Measured values from ChEMBL document CHEMBL4483862, “Open-source discovery of chemical leads for next-generation chemoprotective antimalarials” (2018).

System: Plasmodium berghei
Experiment: Luciferase/luciferin-expressing antifolate-resistant parasites were used to infect a culture of HepG2 cells that were pre-incubated with compounds. Infected hepatocytes emit light due to the luciferase reaction. Assay results are presented as the percent inhibition of light emission compared to control. […]
Format: functional
Conditions: sporozoite; for IC90: read-out: LUCIFERASE INFECTION ASSAY - IC90
[1] = read-out: LUCIFERASE INFECTION ASSAY - IC50

Row | Structure (SMILES) | IC90 [µM] | also measured
1 | CN(CC(=O)Nc1ccc(N2CCOCC2)cc1)Cn1nc(-c2cccs2)n(CC2CCCO2)c1=S (stereo not given) | > 10 | IC50 [1]: > 10 µM
2 | CC12C/C(=C\c3ccccc3)C(O)CC1CCC1C2CCC2(C)C1CC[C@]2(C)O (stereo not given in full) | > 8.36 | IC50 (FFLUC_HILL_SLOPE 0.541, FFLUC_R_SQUARED 0.353, PBLUC_HILL_SLOPE 12.3, PBLUC_R_SQUARED 0.0329, read-out: LUCIFERASE INFECTION ASSAY - IC50): > 8.36 µM
3 | CN(C)CCNC(=O)c1ccc(-c2cn3c(-c4ccsc4)cnc3cn2)cc1 | > 8.43 | IC50 [1]: > 8.43 µM
4 | CNc1nc2cnc(Nc3cccc(Cl)c3)cc2n1-c1cc(OC)c(OC)c(OC)c1 | 4.49 | IC50 (PBLUC_HILL_SLOPE 3.01, PBLUC_R_SQUARED 0.505, read-out: LUCIFERASE INFECTION ASSAY - IC50): 2.17 µM
5 | O=C(Nc1cccc(Cl)c1)C1CCN(c2ccc(C(F)(F)F)cn2)CC1 | > 8.6 | IC50 (FFLUC_HILL_SLOPE 11.3, FFLUC_R_SQUARED 0.5, read-out: LUCIFERASE INFECTION ASSAY - IC50): > 8.6 µM
6 | COc1ccc2c(c1)c(-c1csc(NC(=O)c3ccccn3)n1)c(C)n2C | > 8.72 | IC50 (PBLUC_HILL_SLOPE 1.89, PBLUC_R_SQUARED 0.766, read-out: LUCIFERASE INFECTION ASSAY - IC50): > 8.72 µM
7 | CS(=O)(=O)Nc1ccc(S(=O)(=O)NC23CC4CC(CC(C4)C2)C3)cc1 | > 8.58 | IC50 [1]: > 8.58 µM
8 | c1ccc(-c2nnc3ccc(-c4cccs4)cn23)cc1 | > 10 | IC50 (HEPG2TOX_HILL_SLOPE 16.6, HEPG2TOX_R_SQUARED 0.17, read-out: LUCIFERASE INFECTION ASSAY - IC50): > 10 µM
9 | Oc1c(C(Nc2ncccn2)c2ccc(F)cc2)ccc2cccnc12 (stereo not given) | 3.55 | IC50 (FFLUC_HILL_SLOPE 12.3, FFLUC_R_SQUARED 0.0325, HEPG2TOX_HILL_SLOPE 1.16, HEPG2TOX_R_SQUARED 0.848, PBLUC_HILL_SLOPE 14, PBLUC_R_SQUARED 0.306, read-out: LUCIFERASE INFECTION ASSAY - IC50): 3.03 µM
10 | Cc1noc(C)c1S(=O)(=O)N(Cc1ccc(C(=O)NC2CC2)cc1)C1CC1 | 3.5 | IC50 (PBLUC_HILL_SLOPE 0.781, PBLUC_R_SQUARED 0.696, read-out: LUCIFERASE INFECTION ASSAY - IC50): 0.21 µM
11 | CN(C)CC(C)(C)CNc1nn2cc(-c3ccccc3)nc2s1 | > 10 | IC50 (PBLUC_HILL_SLOPE 0.619, PBLUC_R_SQUARED 0.654, read-out: LUCIFERASE INFECTION ASSAY - IC50): 0.732 µM
12 | CN1CCCN(c2ncnc3cc(-c4ccc(Cl)cc4)sc23)CC1 | > 10 | IC50 (PBLUC_HILL_SLOPE 23.2, PBLUC_R_SQUARED 0.558, read-out: LUCIFERASE INFECTION ASSAY - IC50): 9.79 µM
13 | CN(Cc1nc(-c2ccccc2)c2ccccc2n1)Cc1nc(=O)c2ccccc2[nH]1 | > 10 | IC50 [1]: > 10 µM
14 | Cc1ccccc1NC(=O)c1cc2ccccc2c(CN2CCC3(CC2)OCCO3)c1O | 1.28 | IC50 (FFLUC_HILL_SLOPE 10.9, FFLUC_R_SQUARED 0.858, HEPG2TOX_HILL_SLOPE 2.82, HEPG2TOX_R_SQUARED 0.87, PBLUC_HILL_SLOPE 1.78, PBLUC_R_SQUARED 0.84, read-out: LUCIFERASE INFECTION ASSAY - IC50): 0.373 µM
15 | O=C(CCOc1ccc(F)cc1)Nc1cc(Cl)cc(Cl)c1 | > 10.1 | IC50 (PBLUC_HILL_SLOPE 0.967, PBLUC_R_SQUARED 0.399, read-out: LUCIFERASE INFECTION ASSAY - IC50): > 10.1 µM
16 | CCCN(CC(=O)Nc1cc(-c2ccccc2)sc1C(=O)OCC)Cc1nnc(-c2ccco2)o1 | > 10 | IC50 (PBLUC_HILL_SLOPE 3.67, PBLUC_R_SQUARED 0.341, read-out: LUCIFERASE INFECTION ASSAY - IC50): 7.32 µM
17 | O=C(NC1CC1)c1ccc(-c2cn3c(-c4ccc(O)cc4)cnc3cn2)cc1 | > 8.91 | IC50 (HEPG2TOX_HILL_SLOPE 9.19, HEPG2TOX_R_SQUARED 0.833, PBLUC_HILL_SLOPE 2.2, PBLUC_R_SQUARED 0.157, read-out: LUCIFERASE INFECTION ASSAY - IC50): 7.74 µM
18 | NC(=O)c1cc(S(=O)(=O)N2CCCC2)ccc1OCc1nc2ccccc2s1 | > 10 | IC50 (HEPG2TOX_HILL_SLOPE 0.311, HEPG2TOX_R_SQUARED 0.0458, PBLUC_HILL_SLOPE 3.01, PBLUC_R_SQUARED 0.0562, read-out: LUCIFERASE INFECTION ASSAY - IC50): 7.99 µM
19 | FC(F)(F)c1cnc(N/N=C/c2cccs2)c(Cl)c1 | 10.6 | IC50 (HEPG2TOX_HILL_SLOPE 9.1, HEPG2TOX_R_SQUARED 0.955, PBLUC_HILL_SLOPE 28.7, PBLUC_R_SQUARED 0.321, read-out: LUCIFERASE INFECTION ASSAY - IC50): 9.82 µM
20 | O=C1C=C/C(=N\Nc2ccc3c(c2)OCCO3)c2cccnc21 | 3.95 | IC50 (HEPG2TOX_HILL_SLOPE 2.89, HEPG2TOX_R_SQUARED 0.923, PBLUC_HILL_SLOPE 13, PBLUC_R_SQUARED 0.601, read-out: LUCIFERASE INFECTION ASSAY - IC50): 3.33 µM

Row | Structure (SMILES) | IC90 [µM] | also measured
21 | Cn1c(NCc2ccccc2)nc2cnc(-c3ccsc3)cc21 | > 10 | IC50 [1]: > 10 µM
22 | CCC1CCc2sc(C(=O)NNC(=O)c3cnccn3)cc2C1 (stereo not given) | > 10 | IC50 (HEPG2TOX_HILL_SLOPE 2.38, HEPG2TOX_R_SQUARED 0.712, PBLUC_HILL_SLOPE 3.73, PBLUC_R_SQUARED 0.532, read-out: LUCIFERASE INFECTION ASSAY - IC50): 6.76 µM
23 | CCC(C)(C)NC(=O)CSC(c1ccc(F)cc1)c1ccc(F)cc1 | > 10 | IC50 [1]: > 10 µM
24 | Cc1ccc([N+](=O)[O-])cc1S(=O)(=O)Nc1ccccc1C(=O)OCC(=O)NCCC1=CCCCC1 | > 10 | IC50 (HEPG2TOX_HILL_SLOPE 2.79, HEPG2TOX_R_SQUARED 0.956, PBLUC_HILL_SLOPE 19.8, PBLUC_R_SQUARED 0.561, read-out: LUCIFERASE INFECTION ASSAY - IC50): 9.09 µM
25 | OCc1ccc(-c2cn3c(-c4ccc5ncccc5c4)cnc3cn2)cc1 | 3.45 | IC50 (HEPG2TOX_HILL_SLOPE 2.22, HEPG2TOX_R_SQUARED 0.955, PBLUC_HILL_SLOPE 5.03, PBLUC_R_SQUARED 0.612, read-out: LUCIFERASE INFECTION ASSAY - IC50): 2.23 µM
26 | CN(CCCc1[nH]nc(N)c1C#N)c1nc(-c2ccccn2)nc2sc(-c3ccccc3)cc12 | > 10 | IC50 (PBLUC_HILL_SLOPE 13.8, PBLUC_R_SQUARED 0.648, read-out: LUCIFERASE INFECTION ASSAY - IC50): 8.54 µM
27 | O=C(OCc1cc(=O)oc2ccc3ccccc3c12)c1ccccc1-c1ccc(C(F)(F)F)cc1 | > 10 | IC50 (FFLUC_HILL_SLOPE 17.5, FFLUC_R_SQUARED 0.62, read-out: LUCIFERASE INFECTION ASSAY - IC50): > 10 µM
28 | O=C(Nc1ncccc1O)c1ccc(S(=O)(=O)NCCc2cccs2)cc1 | 0.176 | IC50 [1]: 0.134 µM
29 | CSc1cccc(N2C(=O)C=C(C)C2=O)c1 | > 14.1 | IC50 (PBLUC_HILL_SLOPE 2.08, PBLUC_R_SQUARED 0.24, read-out: LUCIFERASE INFECTION ASSAY - IC50): 13.4 µM
30 | CN(CC(=O)Nc1ccc(OC(F)(F)F)cc1)Cc1cc(=O)n2c([nH]c3ccccc32)c1C#N | > 10 | IC50 (HEPG2TOX_HILL_SLOPE 2.12, HEPG2TOX_R_SQUARED 0.883, PBLUC_HILL_SLOPE 1.9, PBLUC_R_SQUARED 0.564, read-out: LUCIFERASE INFECTION ASSAY - IC50): 4.93 µM
31 | COc1ccc(NC(=O)c2ccc3c(c2)C(=O)N(c2ccccc2Cl)C3=O)cn1 | > 10 | IC50 [1]: > 10 µM
32 | Cn1c(NCC2CC2)nc2cnc(Nc3cccc(Oc4ccccc4)c3)cc21 | 3.77 | IC50 (HEPG2TOX_HILL_SLOPE 1.32, HEPG2TOX_R_SQUARED 0.983, PBLUC_HILL_SLOPE 3.67, PBLUC_R_SQUARED 0.52, read-out: LUCIFERASE INFECTION ASSAY - IC50): 2.07 µM
33 | COc1cccc(CN2CCN3C(C(=O)Nc4ccc(F)c(Cl)c4)=COC3=NC2=O)c1 | > 10 | IC50 (HEPG2TOX_HILL_SLOPE 1.28, HEPG2TOX_R_SQUARED 0.654, PBLUC_HILL_SLOPE 1.61, PBLUC_R_SQUARED 0.572, read-out: LUCIFERASE INFECTION ASSAY - IC50): 3.18 µM
34 | CCCCNC(=O)NCCc1ccc2c(c1)OCCO2 | > 10 | IC50 [1]: > 10 µM
35 | N#Cc1ccc(OCc2nc3ccccc3n2C(F)F)cc1 | 4.42 | IC50 (HEPG2TOX_HILL_SLOPE 1.97, HEPG2TOX_R_SQUARED 0.844, PBLUC_HILL_SLOPE 169, PBLUC_R_SQUARED 0.414, read-out: LUCIFERASE INFECTION ASSAY - IC50): 4.36 µM
36 | Oc1ccc(-c2cn3c(-c4ccc(Cl)cc4)cnc3cn2)cc1 | 5.63 | IC50 (HEPG2TOX_HILL_SLOPE 7.91, HEPG2TOX_R_SQUARED 0.667, PBLUC_HILL_SLOPE 4.16, PBLUC_R_SQUARED 0.739, read-out: LUCIFERASE INFECTION ASSAY - IC50): 3.32 µM
37 | Cc1ccc(C)c(NC(=S)[C-](C(=O)c2ccc3c(c2)OCCO3)[n+]2ccccc2)c1 | > 10 | IC50 (PBLUC_HILL_SLOPE 1.61, PBLUC_R_SQUARED 0.831, read-out: LUCIFERASE INFECTION ASSAY - IC50): 5.38 µM
38 | O=C(Nc1ccc(-n2nc(C(F)(F)F)cc2C(F)(F)F)cc1)Nc1cc(Cl)cc(Cl)c1 | 2.08 | IC50 [1]: 1.83 µM
39 | O=C(CSc1ccc(S(=O)(=O)N2CCCCCC2)cn1)N1CCN(c2ccccc2F)CC1 | > 10 | IC50 (HEPG2TOX_HILL_SLOPE 8.02, HEPG2TOX_R_SQUARED 0.252, PBLUC_HILL_SLOPE 16.3, 0.0846, PBLUC_R_SQUARED 0.285, 0.0684, read-out: LUCIFERASE INFECTION ASSAY - IC50): 9.76 µM
40 | NC(=O)C1CCN(c2cc(-c3nc4ccccc4s3)c3ccccc3n2)CC1 | > 10 | IC50 (PBLUC_HILL_SLOPE 7.92, PBLUC_R_SQUARED 0.452, read-out: LUCIFERASE INFECTION ASSAY - IC50): 8.36 µM
